Activity calls are given as the source filed them. No rule for the calls is given here.
Columns and labels:
[1] = molecular target: T1, Nucleoside diphosphate phosphatase ENTPD5 (Homo sapiens) (UniProt O75356); experiment: Inhibition of human recombinant ENTPD5 expressed in insect cells assessed as reduction in UDP hydrolysis up to 10 uM incubated for 1 hr in presence of UMP, GTP and ATP by Escherichia coli UMP kinase pyrH catalyzed UMP phosphorylation coupled luciferase assay
T1 sequence (whole entry): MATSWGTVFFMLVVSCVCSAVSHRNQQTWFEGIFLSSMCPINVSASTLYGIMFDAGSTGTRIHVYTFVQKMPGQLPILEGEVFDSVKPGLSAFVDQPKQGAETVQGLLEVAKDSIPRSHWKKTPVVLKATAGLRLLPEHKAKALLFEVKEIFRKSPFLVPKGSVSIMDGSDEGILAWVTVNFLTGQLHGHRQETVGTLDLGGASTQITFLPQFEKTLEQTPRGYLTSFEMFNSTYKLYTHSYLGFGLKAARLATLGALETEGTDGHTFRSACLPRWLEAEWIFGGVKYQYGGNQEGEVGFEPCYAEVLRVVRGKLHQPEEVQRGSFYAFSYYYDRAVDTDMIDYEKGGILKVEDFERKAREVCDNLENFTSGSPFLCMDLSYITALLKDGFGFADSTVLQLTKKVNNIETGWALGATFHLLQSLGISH

[2] = molecular target: T1, Nucleoside diphosphate phosphatase ENTPD5 (Homo sapiens); experiment: Inhibition of human recombinant ENTPD5 expressed in insect cells assessed as reduction in UDP hydrolysis at 1 uM incubated for 1 hr in presence of UMP, GTP and ATP by Escherichia coli UMP kinase pyrH catalyzed UMP phosphorylation coupled luciferase assay
[3] = molecular target: T1, Nucleoside diphosphate phosphatase ENTPD5 (Homo sapiens); experiment: Inhibition of human recombinant ENTPD5 expressed in insect cells assessed as reduction in reduction in UDP hydrolysis by measuring inorganic phosphate release incubated for 1 hr by malachite green based assay
[4] = molecular target: T2, Uridylate kinase (Escherichia coli (strain K12)) (UniProt P0A7E9); experiment: Inhibition of recombinant Escherichia coli UMP kinase pyrH catalyzed UMP phosphorylation in presence of GTP and ATP incubated for 1 hr by luminescence based assay
T2 sequence (whole entry): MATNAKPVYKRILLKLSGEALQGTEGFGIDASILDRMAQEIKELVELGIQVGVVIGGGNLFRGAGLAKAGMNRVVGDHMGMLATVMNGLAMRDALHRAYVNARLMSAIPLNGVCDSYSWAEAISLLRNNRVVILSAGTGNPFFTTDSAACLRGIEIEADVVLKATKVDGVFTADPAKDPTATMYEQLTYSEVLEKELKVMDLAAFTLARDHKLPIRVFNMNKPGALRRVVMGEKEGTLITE

Structure (SMILES)	inhibition [1]	inhibition [2]	inhibition [3]	inhibition [4]
N#CC1=C(N)C(C#N)(C#N)C(c2ccc(OCc3ccc(Cl)cc3)c([N+](=O)[O-])c2)C2CCCC=C12 (configuration not stated)	Dose-dependent effect	Active	Active	inactive
CN(C)c1ccc(/C=C(\NC(=O)c2cccc(F)c2)C(=O)N/N=C/c2cc(Cl)cc([N+](=O)[O-])c2O)cc1	Dose-dependent effect	Active	Active	inactive
Cn1cc(C(c2ccc(O)c(O)c2O)c2cn(C)c3ccccc23)c2ccccc21	Dose-dependent effect	Active	Active	inactive
C=CCN1C(=O)/C(=C\c2cccn2C)C(=O)NC1=S	Dose-dependent effect	Active	Active	inactive
COc1ccc([C@@H]2Nc3ccc(Br)cc3[C@@H]3C=CC[C@@H]32)cc1[N+](=O)[O-]	Dose-dependent effect	Active	Active	inactive
O=C(O)c1cccc(N2N=C(C(F)(F)F)/C(=C/c3ccc(-c4ccc(S(=O)(=O)Nc5nccs5)cc4)o3)C2=O)c1	Dose-dependent effect	Active	Active	inactive
O=C1/C(=C/c2ccc(-c3ccc(Br)cc3)o2)SC(=S)N1Cc1ccco1	Dose-dependent effect	Active	Active	inactive
CC(C)(C)C(=O)Nc1ccc(C(=O)Nc2ccc(-c3nc4ncccc4o3)cc2)cc1	Dose-dependent effect	Active	Active	inactive
O=S(=O)(Nc1cc(-c2c(O)ccc3ccccc23)c(O)c2ccccc12)c1ccc(F)cc1	Dose-dependent effect	Active	Active	inactive
O=C1NC(=S)N(c2ccc(Cl)cc2)C(=O)/C1=C/c1ccc(I)o1	Dose-dependent effect	Active	Active	inactive
NC1=C/C(=C2\Nc3cc(N)ccc3S2)C(=O)C=C1	Dose-dependent effect	Active	Active	inactive
O=C(NC(=S)Nc1ccc(-c2nc3ncccc3o2)cc1)c1ccc(Cl)cc1Cl	Dose-dependent effect	Active	Active	inactive
Cc1ccc(NC2=NC(=O)/C(=C/c3ccc(-c4ccc(C(=O)O)cc4)o3)S2)cc1Cl	Dose-dependent effect	Active	Active	inactive
CCN1C(=O)c2ccc(-c3ccc(C=C4C(=O)NC(=S)NC4=O)o3)cc2C1=O	Dose-dependent effect	Active	Active	inactive
CC1=NN(c2ccc(S(N)(=O)=O)cc2)C(=O)/C1=C/c1ccc(-c2ccc(C)cc2[N+](=O)[O-])o1	Dose-dependent effect	Active	Active	inactive
C=CCN(CC(=O)N(Cc1ccc2c(c1)OCO2)Cc1coc2ccc(Cl)cc2c1=O)C(=O)c1cccc2ccccc12	Dose-dependent effect	Active	Active	inactive
COCCNC(=O)Cn1cc(/C=C2\C(=O)NC(=O)N(C3CCCCC3)C2=O)c2ccccc21	Dose-dependent effect	Active	Active	inactive
Cc1ccc2ncc(C(CC(=O)N3CCN(C(c4ccccc4)c4ccccc4)CC3)c3ccc4c(c3)OCO4)n2c1 (configuration not stated)	Dose-dependent effect	Active	Active	inactive
CCC(C)(C)C1CCc2c(sc(NC(=O)c3ccoc3C)c2C(N)=O)C1 (configuration not stated)	Dose-dependent effect	Active	Active	inactive

Structure (SMILES)	inhibition [1]	inhibition [2]	inhibition [3]	inhibition [4]
COc1cc(/C=C2/SC(=S)N(C3CCCCC3)C2=O)cc(Cl)c1O	Dose-dependent effect	Active	Active	inactive
COc1cccc(OCCn2cc(/C=C3/C(=N)N4N=C(C(C)C)SC4=NC3=O)c3ccccc32)c1	Dose-dependent effect	Active	Active	inactive
CCc1ccc(NC2=NC(=O)/C(=C/c3cc(Cl)c(OCC(=O)O)c(Cl)c3)S2)cc1	Dose-dependent effect	Active	Active	inactive
Clc1ccc(C2N=c3c(-c4ccco4)nnc(-c4nc5ccccc5s4)c3=N2)cc1 (configuration not stated)	Dose-dependent effect	Active	Active	inactive
C#CCn1cc(/C=C2\C(=O)NC(=S)N(c3ccc(Br)cc3)C2=O)c2ccccc21	Dose-dependent effect	Active	Active	inactive
COC(=O)Cn1c(/C=C2\C(=O)NC(=S)N(c3cccc(Br)c3)C2=O)cc2ccccc21	Dose-dependent effect	Active	Active	inactive
CN1C(=O)C(=Cc2ccc(Sc3ccccc3)o2)C(=O)N(C)C1=S	Dose-dependent effect	Active	Active	inactive
COc1ccc(-n2cccc2/C=C2\C(=O)NC(=S)N(c3ccc(Br)cc3)C2=O)cc1	Dose-dependent effect	Active	Active	inactive
CCN(CC)c1ccc(C(Nc2ccccn2)c2ccc3cccnc3c2O)cc1 (configuration not stated)	Dose-dependent effect	Active	Active	inactive
COc1ccc(/C=C2\SC(=S)N(CCCC(=O)NNC(=O)c3ccccc3O)C2=O)cc1	Dose-dependent effect	Active	Active	inactive
O=C1C=Cc2ccccc2/C1=C/NNC(=O)C(O)(c1ccccc1)c1ccccc1	Dose-dependent effect	Active	Active	inactive
O=C(O)c1ccc(NC(=O)c2ccc3c(c2)C(=O)N(c2ccc(/N=N/c4ccccc4)cc2)C3=O)cc1	Dose-dependent effect	Active	Active	inactive
COc1cccc(/C=c2/sc3n(c2=O)C(c2cccs2)C2=C(N=3)c3ccccc3CC2)c1O (configuration not stated)	Dose-dependent effect	Active	Active	inactive
COC(=O)c1cccc2c1NC(c1ccc([N+](=O)[O-])cc1)C1CC=CC21 (configuration not stated)	Dose-dependent effect	Active	Active	inactive
O=C1OC(c2ccccc2)OC(=O)C1=Cc1ccc(-c2cccc(Br)c2)o1 (configuration not stated)	Dose-dependent effect	Active	Active	inactive
Cc1ccnc(NC(c2ccc3cccnc3c2O)c2sccc2C)c1 (configuration not stated)	Dose-dependent effect	Active	Active	inactive
S=C(Nc1ccccc1)Nc1ccc2nc(-c3ccco3)c(-c3ccco3)nc2c1	Dose-dependent effect	Active	Active	inactive
O=[N+]([O-])c1cccc(C2C3CC=CC3c3cc([N+](=O)[O-])cc4c3N2CC2CC=CC42)c1 (configuration not stated)	Dose-dependent effect	Active	Active	inactive
O=S(=O)(c1cccc(C(F)(F)F)c1)N(CCc1csc2nc(-c3ccc4ccccc4c3)cn12)Cc1ccco1	Dose-dependent effect	Active	Active	inactive
